{"source": "patent EP1175907A1", "about": "“REMEDIES” (Takara Shuzo Co, Ltd., priority 1999, dated 2000)", "key": {"[1]": {"tested_on": "MRC-5 cells", "assay": "HGF production in MRC-5 cells with actinomycin D (RNA synthesis inhibitor)", "type": "cell-based, Human", "conditions": "for Amount of HGF Produced (in Medium): control = 100%", "experimental": "(3) Five-hundred microliters of MRC-5 cells (CCL171: manufactured by DAINIPPON PHARMACEUTICAL CO., LTD., code. 02-021) suspended in a DME medium containing 10% fetal bovine serum so as to have a concentration of 1 × 10^5 cells/ml were added into each well of a 48-well cell culture plate. The cells were cultured at 37°C for 24 hours in the presence of 5% CO2, and then the medium was exchanged for a DME medium containing 1% fetal bovine serum. Thereafter, actinomycin D (RNA synthesis inhibitor: manufactured by Sigma) was added thereto so as to have a final concentration of 0, 0.1, or 1 µg/ml, and a sample to be analyzed was further added thereto. The cells were then cultured for 24 hours. This medium was collected, and the amount of HGF in the medium was determined by using Quantikine Human Hepatocyte Growth Factor (HGF) ELISA Kit (manufactured by Funakoshi, Code. RS-0641-00). As to the amount of HGF produced, negative control was regarded as 100%. As to the inhibitory ratio, the inhibitory ratio (%) of the actinomycin D-added fraction was calculated on the basis of the amount of HGF produced when the fucoidan was added alone at each concentration. The fucoidan derived from Kjellmaniella crassifolia described in item (1) of Reference Example 1 was added so as to have a final concentration of 1, 10 or 100 µg/ml. As the negative control, distilled water was added in the same volume as that of the sample. Each experiment was carried out twice, and an average value was taken. […] It was clarified from these findings that RNA synthesis was probably involved in the induction of HGF production by the fucoidan, not simply freeing of HGF from the cells.\n(4) Five-hundred microliters of MRC-5 cells (CCL171: manufactured by DAINIPPON PHARMACEUTICAL CO., LTD., code. 02-021) suspended in a DME medium containing 10% fetal bovine serum so as to have a concentration of 1 × 10^5 cells/ml were added into each well of a 48-well cell culture plate. The cells were cultured at 37°C for 24 hours in the presence of 5% CO2, and then the medium was exchanged for a DME medium containing 1% fetal bovine serum. Thereafter, actinomycin D (RNA synthesis inhibitor: manufactured by Sigma) was added thereto so as to have a final concentration of 0, 0.1, or 1 µg/ml, and a sample was further added thereto. The cells were then cultured for 24 hours. This medium was collected, and the amount of HGF in the medium was determined by using Quantikine Human Hepatocyte Growth Factor (HGF) ELISA Kit (manufactured by Funakoshi, Code. RS-0641-00). In addition, the cells were washed with PBS, and thereafter dissolved in 500 µl of a cytolytic buffer (50 mM HEPES, pH 7.4; 10 mM EDTA, 0.1% Triton x 100; 1 mM PMSF; 1 µg/ml pepstatin A and 1 µg/ml, leupeptin). Further, in order to completely dissolve the cells, the mixture was subjected to sonication treatment, and then centrifuged, to give a supernatant (cell extract). The amount of HGF in the cell was determined in the same manner as that of the concentration of HGF in the medium. As to the amount of HGF produced, negative control was regarded as 100%. As to the inhibitory ratio, the inhibitory ratio (%) of the actinomycin D-added fraction was calculated on the basis of the amount of HGF produced when 7-12SFd-F was added alone at each concentration. 7-12SFd-F was added so as to have a final concentration of 1,10 or 100 µg/ml. As the negative control, distilled water was added in the same volume as that of the sample. Each experiment was carried out three times, and an average value was taken. […] It was clarified from these findings that RNA synthesis was probably involved in the induction of HGF production by 7-12SFd-F, not simply freeing of HGF from the cells."}, "[2]": {"tested_on": "NHDF cells", "assay": "HGF in medium of NHDF cells with or without minoxidil", "type": "cell-based, human", "experimental": "The cells were cultured for 24 hours. […] Also, the same steps were carried out for the group added with only the sample without adding minoxidil. The medium was collected, and the amount of HGF in the medium was determined by using Quantikine Human Hepatocyte Growth Factor (HGF) ELISA Kit. […] As a negative control, distilled water was added in the same volume as that of the sample. Each experiment was carried out three times, and an average value was taken."}, "[3]": {"tested_on": "MRC-5 cells", "assay": "mRNA of HGF in MRC-5 cells (RT-PCR)", "type": "cell-based", "conditions": "7-12SFd-F 100 µg/ml, LM Heparin 1 µg/ml or PGE1 1 µM; Hours 0 to 24, compared to control", "experimental": "MRC-5 cells (CCL 171: manufactured by DAINIPPON PHARMACEUTICAL CO., LTD., code. 02-021) cultured in a DMEM medium containing 10% fetal bovine serum were suspended in the DMEM medium containing 10% fetal bovine serum so as to have a concentration of 2.5 × 10^5 cells/ml, and added into each well of a 6-well cell culture plate. The cells were cultured at 37°C for 24 hours in the presence of 5% CO2. Thereafter, the medium was exchanged for a DMEM medium containing 1% fetal bovine serum, and the cells were further cultured for 22 hours. Thereafter, the medium was exchanged for each medium added with 7-12SFd-F prepared in item (3) of Reference Example 2 so as to have a final concentration of 100 µg/ml, LM Heparin (manufactured by Celsus Laboratories) so as to have a final concentration of 1 µg/ml, or prostaglandin E1 (PGE1) (manufactured by Wako Pure Chemicals Industries, Ltd.) dissolved in dimethyl sulfoxide (DMSO) so as to have a final concentration of 1 µM. As a medium for control group, the medium added with DMSO was used. Here, the solvent of each additive mentioned above was added so as to have a concentration of 1% in all cases. […] In addition, in order to carry out a semi-quantitative experiment, â-actin, a housekeeping gene, was also detected. […] In all of the samples, mRNA of HGF was detected. […]"}, "[4]": {"tested_on": "MRC-5 cells", "assay": "synergistic effect on HGF production with PGE1 or IL-1α in MRC-5 cells", "type": "cell-based, Human", "conditions": "control = 100%", "source_text": "(1) Synergistic effect for the induction action for HGF production of the fucoidan derived from Kjellmaniella crassifolia described in item (1) of Reference Example 1 with prostaglandin or IL-1 was studied in the same manner as that in item (1) of Example 1.\nSpecifically, the synergistic effect for the induction activity for HGF production was studied by simultaneously adding the fucoidan and PGE1 (manufactured by Wako Pure Chemicals Industries, Ltd.) or IL-1α (manufactured by Genzyme).\nThe fucoidan sample was added so as to have a final concentration of 1, 10 or 100 µg/ml. PGE1 was added so as to have a concentration of 0.1 or 1 µM, the IL-1α was added so as to have a concentration of 1 ng/ml. As a control, distilled water was added in same volume as that of the sample.\nThe synergistic effect was studied in comparison to the amount produced of a case where the fucoidan sample or PGE1 or IL-1α was added alone.\nIn Tables 35 and 36, the amount of HGF produced of the control was regarded as 100%. Each experiment was carried out twice, and an average value was taken. […]\n(2) Synergistic effect for the induction action for HGF production of 7-12SFd-F of Reference Example 2 with prostaglandin or IL-1 was studied in the same manner as that in item (1) of Example 2. […]"}}, "note": "Values joined by “and” are separate entries in the source; they are usually repeats but may differ in a detail not shown here. Identical values can stand only once. *1 amine or outer side, *2 acyl side, *3 side chain or, on linkers, in order; H or OH if unused. Where a SMILES comes first, the peptide text is derived from it. Bridges are numbered along the chain shown (N, C = ends). Roman numbers before positions name the chains, in order. [ ]: non-standard residue; d: D form. Actinocin(9to1) = Cc1c2oc3c(C)ccc(C(=O)[*:1])c3nc-2c(C(=O)[*:2])c(N)c1=O; NMeV = CN[C@H](C(=O)O)C(C)C; Sar = CNCC(=O)O"}
{"compound": "Cc1c2oc3c(C)ccc(C(=O)N[C@@H]4C(=O)N[C@H](C(C)C)C(=O)N5CCC[C@H]5C(=O)N(C)CC(=O)N(C)[C@@H](C(C)C)C(=O)O[C@@H]4C)c3nc-2c(C(=O)N[C@@H]2C(=O)N[C@H](C(C)C)C(=O)N3CCC[C@H]3C(=O)N(C)CC(=O)N(C)[C@@H](C(C)C)C(=O)O[C@@H]2C)c(N)c1=O", "note": "[Actinomycin D, actinomycin D] (I: T[dV]P[Sar][NMeV] / II: T[dV]P[Sar][NMeV]; ester I:1-I:C, II:1-II:C; linker I:N-II:N via Actinocin(9to1))", "values": [{"measurement": "Amount of HGF Produced (Total in Cells and in Medium)", "setting": "[1]; Actinomycin D 0.1 µg/ml alone", "value": 61, "unit": "%"}, {"measurement": "Inhibitory Ratio Where Actinomycin D Non-Added Group Was Regarded as 100% (Total in Cells and in Medium)", "setting": "[1]; Actinomycin D 0.1 µg/ml alone", "value": 39, "unit": "%"}, {"measurement": "Inhibitory Ratio Where Actinomycin D Non-Added Group Was Regarded as 100% (in Medium)", "setting": "[1]; Actinomycin D 0.1 µg/ml alone", "value": "21% and 24%"}, {"measurement": "Amount of HGF Produced (in Medium)", "setting": "[1]; Actinomycin D 0.1 µg/ml alone", "value": "79% and 76%"}, {"measurement": "Amount of HGF Produced (Total in Cells and in Medium)", "setting": "[1]; Actinomycin D 1 µg/ml alone", "value": 59, "unit": "%"}, {"measurement": "Inhibitory Ratio Where Actinomycin D Non-Added Group Was Regarded as 100% (Total in Cells and in Medium)", "setting": "[1]; Actinomycin D 1 µg/ml alone", "value": 41, "unit": "%"}, {"measurement": "Inhibitory Ratio Where Actinomycin D Non-Added Group Was Regarded as 100% (in Medium)", "setting": "[1]; Actinomycin D 1 µg/ml alone", "value": "17% and 20%"}, {"measurement": "Amount of HGF Produced (in Medium)", "setting": "[1]; Actinomycin D 1 µg/ml alone", "value": "83% and 80%"}]}
{"compound": "Nc1cc(N2CCCCC2)nc(N)[n+]1[O-]", "note": "[Minoxidil, minoxidil]", "values": [{"measurement": "Concentration of HGF in Medium", "setting": "[2]; Minoxidil 10 µg/ml alone", "value": 126.04, "unit": "pg/mL"}, {"measurement": "Concentration of HGF in Medium", "setting": "[2]; Minoxidil 100 µg/ml alone", "value": "148.83 pg/mL and 137.20 pg/mL"}]}
{"compound": "CCCCC[C@H](O)/C=C/[C@H]1[C@H](O)CC(=O)[C@@H]1CCCCCCC(=O)O", "note": "[PGE1, prostaglandin E1]", "values": [{"measurement": "induction of mRNA of HGF", "setting": "[3]", "value": "found"}, {"measurement": "Amount of HGF Produced", "setting": "[4]; PGE1 0.1 µM alone", "value": "119% and 123%"}, {"measurement": "Amount of HGF Produced", "setting": "[4]; PGE1 1 µM alone", "value": "157% and 170%"}]}
